Test results: patent US4864018A, “Anthraquinone derivatives and their use as protein absorbents” (Imperial Chemical Industries PLC, priority 1985, dated 1989)

Molecular target: T1, horse liver alcohol dehydrogenase (Equus caballus, UniProt P00327)
T1 construct: from tissue; host or cells: horse liver
Assay: affinity of binding with horse liver alcohol dehydrogenase: reduction in rate of enzyme de-activation by CI Reactive Blue 4 in competition with dye
Settings: carboxylate (i), (ii), (iii) versus sulphonate (iv), (v), (vi) respectively
Method: Three dyes of Formula I, in which the COOH group on Ring A is in the ortho (o), meta (m) and para (p) positions respectively, (i), (ii) and (iii) in Table 2, and three analogues in which the COOH groups are replaced by SO3 H groups, (iv), (v) and (vi) in Table 2, were assessed by affinity of binding with horse liver alcohol dehydrogenase. The assessment procedure comprised measuring the reduction in rate of enzyme de-activation by CI Reactive Blue 4 (a highly reactive, dichlorotriazine dye which rapidly deactivates horse liver alcohol dehydrogenase) when of dyes (i) to (vi) was allowed to compete with CI Reactive Blue 4 for the enzyme. From the reductions in rate observed the dissociation constants, KD, of the [enzyme-dye] combinations were calculated and these values are listed in Table 2.

T1 sequence (P00327 2-375 limits assumed): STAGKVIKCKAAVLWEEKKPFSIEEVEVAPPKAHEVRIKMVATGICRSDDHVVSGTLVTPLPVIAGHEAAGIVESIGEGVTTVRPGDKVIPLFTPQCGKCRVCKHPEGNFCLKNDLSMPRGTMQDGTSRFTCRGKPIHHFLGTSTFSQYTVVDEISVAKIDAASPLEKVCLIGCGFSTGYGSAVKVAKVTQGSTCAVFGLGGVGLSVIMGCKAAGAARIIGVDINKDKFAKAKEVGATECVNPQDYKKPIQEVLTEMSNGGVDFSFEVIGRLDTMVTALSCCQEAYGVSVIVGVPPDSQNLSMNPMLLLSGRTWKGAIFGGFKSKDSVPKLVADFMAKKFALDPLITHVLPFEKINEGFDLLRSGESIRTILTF

Binding affinity compared with the corresponding sulphonate analogue, markedly and surprisingly higher:
Nc1c(S(=O)(=O)O)cc(Nc2ccc(Nc3nc(Cl)nc(Nc4ccccc4C(=O)O)n3)c(S(=O)(=O)O)c2)c2c1C(=O)c1ccccc1C2=O [(i)]
Nc1c(S(=O)(=O)O)cc(Nc2ccc(Nc3nc(Cl)nc(Nc4cccc(C(=O)O)c4)n3)c(S(=O)(=O)O)c2)c2c1C(=O)c1ccccc1C2=O [(ii)]
Nc1c(S(=O)(=O)O)cc(Nc2ccc(Nc3nc(Cl)nc(Nc4ccc(C(=O)O)cc4)n3)c(S(=O)(=O)O)c2)c2c1C(=O)c1ccccc1C2=O [(iii)]
